The test system of data set [1] is NR8383 rat alveolar macrophages. The experiment in a line: Cellular delivery: pDNA uptake (ddPCR). It counts as cell-based. To be noted: LPS-activated NR8383; for pDNA copies per μL cell suspension: D-mannose plus pDNA. The protocol: The cell line used was NR8383 rat alveolar macrophages, which grow as a mixture of suspended and adherent cells. The culture medium was F-12K Medium+15% FBS. The cells were plated in a 24-well format at a seeding density of 4-6×10^5 cells/mL into the wells of a 24-well plate. All conditions were performed in duplicate. The testing conditions used NR8383 cells in both unactivated and activated states. […] Activated macrophages are characteristic of macrophages found in inflammatory disease states. […] Either 0, 1, or 2 μg pDNA was used per well, with or without mannose. The combination of pDNA minus D-mannose serves as pDNA control for all conditions. The combination of pDNA with uncomplexed Mannoquin 38 was completed by adding separate pDNA and Mannoquin 38 solutions to culture. Also, pDNA with complexed Mannoquin 38 were studied wherein pre-incubated pDNA and Mannoquin 38 solutions were added to the culture. Lipofectamine 2000 transfections per manufacturer's instructions was used as a positive control. Separate confirmation of successful transfection with Lipofectamine 2000 has been confirmed. The pDNA solution used was 40 μg/mL pDNA in PBS (herein after “Working pDNA solution”). […] For studies with no pDNA, 100 μL of 1×PBS was added to the appropriate culture wells. For plasmid-only conditions, to the appropriate culture wells, 100 μL of DNA solutions was added, wherein the solution was 50 μL of Working pDNA solution+150 μL of 1×PBS (1 μg pDNA) or 100 μL of Working pDNA solution+100 μL of 1×PBS (2 μg pDNA). For non-complexed test agent conditions, to the appropriate culture wells, 50 μL of each separately prepared solution was added: DNA solution (0, 25, or 50 μL Working pDNA solution+100, 75, or 50 μL 1×PBS, respectively) or test agent solution (25, 25, or 50 μL Test Agent Working solution+75, 75, or 50 μL 1×PBS, respectively). […] PCR reaction was performed and read according to the manufacturer's protocol.

The nature of data set [2]: Kinetic solubility measurements. The conditions noted are these: aqueous buffer, kinetic from dmso stock.
A further data set relates to DNA plasmid. Nature of the data set: Quinacrine-DNA binding saturation (absorbance titration). To be noted: 4 mM or 8 mM phosphate/citrate buffer; FIG. 3. The protocol:
FIG. 2 is a wavelength versus absorbance graph used to study quinacrine-DNA binding. Quinacrine concentrations were held constant under low ionic conditions (10 mM Na^+), and DNA plasmid was titrated. Absorbance was measured at 260 nm (DNA absorbance), 424 nm (quinacrine absorbance), 445 nm (quinacrine absorbance), and 461 nm (isobestic point).
FIG. 3 is a plasmid:quinacrine ratio versus absorbance graph used to study quinacrine-DNA binding saturation. The recovery of absorbance (marked with an arrow) indicates saturation. Saturation occurred at a plasmid/quinacrine ratio of 8 in 4 mM or 8 mM phosphate/citrate buffer.

Several values for one entry are separate records, joined by “and”; a condition that tells them apart may be missing. Identical values can stand only once.

In the case of `O=C[C@@H](O)[C@@H](O)[C@H](O)[C@H](O)CO` [D-mannose], the “pDNA copies per μL cell suspension” value in data set [1] (1 μg pDNA) was 68 copies per μL cell suspension; in data set [1] (2 μg pDNA), 68.4 copies per μL cell suspension. Besides, in data set [1] (agent plus pDNA, not complexed), the “dose-dependency of uptake based on pDNA level” value was “no dose-dependency”.
`C[C@]12CC[C@H]3[C@@H](CCC4=CC(=O)CC[C@@]43C)[C@@H]1CC[C@@H]2O` [Testosterone]: the solubility – broadly, the dissolved amount per volume that the medium holds – at 4 h in data set [2] is 40 µM and 12 µg/mL.
Take `CCN(CC)CCCC(C)Nc1c2ccc(Cl)cc2nc2ccc(OC)cc12` (centres unmarked) [quinacrine]: the “plasmid/quinacrine ratio at saturation” value with DNA plasmid was 8.

The record behind these values is US20260137806A1, “INTERCALATING SUGAR MOLECULES” (Xalud Therapeutics, Inc., priority 2022, published 2026).
